The source of these data is patent publication US20260083851A1 (AVILAR THERAPEUTICS, INC., priority 2022, published 2026).

Where two headings read alike, the source gives them in different places. Starred links: 1 amine or outer side, 2 acyl side, 3 side chain; linkers in the order of their positions; H or OH if unused. Positions of bridges follow the written chain, without caps; N, C: chain ends. Non-standard residues stand in square brackets, D forms with d. Residues, ends and D or L forms follow the SMILES beside them. ξ: configuration not given here. *: point of attachment. X1 = O=C(CCOCC(COCCC(=O)NCCOCCOCCOCCOCC1OCC(Nc2cncc(C(F)(F)F)n2)C(O)C1O)NCC(=O)*)NCCOCCOCCOCCOCC1OCC(Nc2cncc(C(F)(F)F)n2)C(O)C1O; ξPro(4ξ-NH2) = O=C(C1CC(N[*:3])CN1[*:1])[*:2]; ξPro(4-NH2) = NC1CNC(C(=O)O)C1

Assay [1] addresses T1, ASGPR receptor on HepG2 cells (ternary complex with AF488-labeled antibody) (Homo sapiens, UniProt P07306).
T1 construct: host or cells: HepG2
T1 sequence (P07306 1-291): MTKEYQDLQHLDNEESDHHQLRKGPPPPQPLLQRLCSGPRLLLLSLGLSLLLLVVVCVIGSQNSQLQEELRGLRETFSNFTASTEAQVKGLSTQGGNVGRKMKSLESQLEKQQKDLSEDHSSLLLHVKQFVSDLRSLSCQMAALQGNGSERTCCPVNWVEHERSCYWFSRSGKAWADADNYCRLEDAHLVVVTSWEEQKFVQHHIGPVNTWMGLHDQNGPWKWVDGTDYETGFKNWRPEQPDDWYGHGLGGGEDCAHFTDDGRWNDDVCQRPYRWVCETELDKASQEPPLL
T1 sequence (P07307 1-311 partner): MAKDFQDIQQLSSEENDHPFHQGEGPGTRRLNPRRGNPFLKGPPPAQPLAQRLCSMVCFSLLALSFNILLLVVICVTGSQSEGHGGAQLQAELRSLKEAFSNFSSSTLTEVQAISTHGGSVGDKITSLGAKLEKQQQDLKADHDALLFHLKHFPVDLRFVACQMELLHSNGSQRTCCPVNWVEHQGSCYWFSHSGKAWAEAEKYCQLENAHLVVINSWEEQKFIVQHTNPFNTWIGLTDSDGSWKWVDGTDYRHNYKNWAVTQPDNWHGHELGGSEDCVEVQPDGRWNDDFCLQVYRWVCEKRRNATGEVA
Nature of the assay: Ternary complex formation assay (flow cytometry, cell-associated AF488 fluorescence). It is filed as cell-based. As for the experimental part:
Human IgG (Sigma-Aldrich, 14506) was covalently labeled with Alexa Fluor 488 using the Alexa Fluor™ 488 Protein Labeling Kit (Thermo Fisher, A10235) following the manufacturer's instructions. HepG2 cells (ATCC, HB-8065) were cultured to about 70% confluence and harvested by trypsinization. Single cell suspensions of HepG2 cells were plated in 96 well plates at 1×10^5 cells/well in cell culture media (DMEM supplemented with 10% FBS) and placed at 4° C. For studies using human IgG, cells were incubated with 100 nM AF488-labeled anti-human IgG and serial dilutions of IgG-based degrader for 1 hour at 4° C. For studies using DNP, cells were incubated with 100 nM AF488-labeled polyclonal rabbit anti-dinitrophenyl (DNP) antibodies (ThermoFisher) and serial dilutions of DNP-based degrader for 1 hour at 4° C. After washing once with ice-cold PBS containing 0.1% BSA and 0.1% sodium azide, cells were resuspended in 150 uL PBS+0.1% BSA and cell-associated AF488 fluorescence was measured by flow cytometry using the iQue® Screener PLUS Flow Cytometer (IntelliCyt). […]

In assay [2] the target is IgG. As to the kind of experiment: IgG SPR binding. Particulars: second table, read-out: IgG KD.
The target in assay [3] is T2, ASGPR (Homo sapiens, UniProt P07306).
T2 construct: biotin (biotinylated)
T2 sequence (P07306 1-291): T1 sequence (P07306 1-291)
As to the kind of experiment: ASGPR SPR binding.

Setting [4] is: read-out: TCF EC50, 100 nM AF488-labeled antibody, 1 hour at 4° C., the 25th table, class symbols.
Setting [5] is: read-out: ASGPR KD, second table.
[6] abbreviates: second table, read-out: ASGPR KD.
The mark [7] stands for this setting: 100 nM AF488-labeled antibody, 1 hour at 4° C., the 25th table, class symbols, read-out: TCF EC50.

Take `CC(C)CC1NC(=O)C(C)NC(=O)CNC(=O)C(CC(C)C)NC(=O)C(Cc2cnc[nH]2)NC(=O)C(Cc2c[nH]c3ccccc23)NC(=O)C(C)NC(=O)C2CSSCC(NC(=O)C(Cc3c[nH]c4ccccc34)NC(=O)C(C(C)C)NC1=O)C(=O)NC(C(C)O)C(=O)N1CCCC1C(=O)N1CC(NC(=O)CNC(COCCC(=O)NCCOCCOCCOCCOCC3OCC(Nc4cncc(C(F)(F)F)n4)C(O)C3O)COCCC(=O)NCCOCCOCCOCCOCC3OCC(Nc4cncc(C(F)(F)F)n4)C(O)C3O)CC1C(=O)NC(CC(N)=O)C(=O)N2` (stereo not drawn) [compound 74] (cyclo(GALVWCTP[ξPro(4ξ-NH2)](X1)NCAWHL); disulfide 6-11; configuration not given here): the EC50 in assay [1] (setting [4]) was below 100 nM. For the same molecule, the Kd in assay [2] and in assay [3] (setting [5]) was below 100 nM throughout.
As to `CC(C)CC1NC(=O)C(Cc2cnc[nH]2)NC(=O)C(Cc2c[nH]c3ccccc23)NC(=O)C(C)NC(=O)C2CSSCC(NC(=O)C(Cc3c[nH]c4ccccc34)NC(=O)C(C(C)C)NC(=O)C(CC(C)C)NC(=O)C(CCC(=O)O)NC(=O)CNC1=O)C(=O)NC(C(C)O)C(=O)N1CCCC1C(=O)N1CC(NC(=O)CCN3CCN(CC(=O)NCC4OCC(Nc5cncc(C(F)(F)F)n5)C(O)C4O)CC3)CC1C(=O)NC(CC(=O)O)C(=O)N2` (stereo not drawn) [compound 39], the EC50 in assay [1] (setting [4]) was below 100 nM. For the same molecule, the dissociation constant Kd in assay [2] and in assay [3] (setting [6]) was below 100 nM each time.
With `CC(C)CC1NC(=O)C(Cc2cnc[nH]2)NC(=O)C(Cc2c[nH]c3ccccc23)NC(=O)C(C)NC(=O)C2CSSCC(NC(=O)C(Cc3c[nH]c4ccccc34)NC(=O)C(C(C)C)NC(=O)C(CC(C)C)NC(=O)C(CCC(=O)O)NC(=O)CNC1=O)C(=O)NC(C(C)O)C(=O)N1CCCC1C(=O)N1CC(NC(=O)CNC(COCCC(=O)NCC3OCC(Nc4cncc(C(F)(F)F)n4)C(O)C3O)COCCC(=O)NCC3OCC(Nc4cncc(C(F)(F)F)n4)C(O)C3O)CC1C(=O)NC(CC(=O)O)C(=O)N2` (stereo not drawn) [compound 41], in assay [1] (setting [4]), the EC50 is below 100 nM. In addition, the equilibrium dissociation constant (Kd) in assay [2] and in assay [3] (setting [5]) was below 100 nM in each case.
For `CC(C)CC1NC(=O)C(Cc2cnc[nH]2)NC(=O)C(Cc2c[nH]c3ccccc23)NC(=O)C(C)NC(=O)C2CSSCC(NC(=O)C(Cc3c[nH]c4ccccc34)NC(=O)C(C(C)C)NC(=O)C(CC(C)C)NC(=O)C(CCC(=O)O)NC(=O)CNC1=O)C(=O)NC(C(C)O)C(=O)N1CCCC1C(=O)N1CC(NC(=O)c3ccc(N4CCC(CN5CCN(CC6OCC(Nc7cncc(C(F)(F)F)n7)C(O)C6O)CC5)CC4)cc3)CC1C(=O)NC(CC(=O)O)C(=O)N2` (stereo not drawn) [compound 98], the EC50 in assay [1] (setting [4]) is below 100 nM. Besides, in assay [2], the dissociation constant (Kd) was below 100 nM.
As to `CC(C)CC1NC(=O)C(Cc2cnc[nH]2)NC(=O)C(Cc2c[nH]c3ccccc23)NC(=O)C(C)NC(=O)C2CSSCC(NC(=O)C(Cc3c[nH]c4ccccc34)NC(=O)C(C(C)C)NC(=O)C(CC(C)C)NC(=O)C(CCC(=O)O)NC(=O)CNC1=O)C(=O)NC(C(C)O)C(=O)N1CCCC1C(=O)N1CC(NC(=O)CCCc3cn(CC45COC(O4)C(NC(=O)C(F)(F)F)C(O)C5O)nn3)CC1C(=O)NC(CC(=O)O)C(=O)N2` (stereo not drawn) [compound 104], the EC50 in assay [1] (read-out: TCF EC50, 100 nM AF488-labeled antibody, 1 hour at 4° C., the 25th table, numeric bounds, nM from footnote) was above 10000 nM. In assay [2], the Kd is below 100 nM.
For the molecule `CC(C)CC1NC(=O)C(Cc2cnc[nH]2)NC(=O)C(Cc2c[nH]c3ccccc23)NC(=O)C(C)NC(=O)C2CSSCC(NC(=O)C(Cc3c[nH]c4ccccc34)NC(=O)C(C(C)C)NC(=O)C(CC(C)C)NC(=O)C(CCC(=O)O)NC(=O)CNC1=O)C(=O)NC(C(C)O)C(=O)N1CCCC1C(=O)N1CC(NC(=O)CCOCCOCCOCCOCCNC(=O)CCCc3cn(CCCCCC(=O)NC(COCCC(=O)NCCOCCOCCOCCOCC4OCC(Nc5nccc(C(F)(F)F)n5)C(O)C4O)(COCCC(=O)NCCOCCOCCOCCOCC4OCC(Nc5nccc(C(F)(F)F)n5)C(O)C4O)COCCC(=O)NCCOCCOCCOCCOCC4OCC(Nc5nccc(C(F)(F)F)n5)C(O)C4O)nn3)CC1C(=O)NC(CC(=O)O)C(=O)N2` (stereo not drawn) [compound 88], the EC50 in assay [1] (setting [7]) was below 100 nM. The Kd in assay [2] and in assay [3] (setting [6]) was below 100 nM each time.
On to `COC1OC(Cn2cc(CCCC(=O)NC3CC4C(=O)NC(CC(=O)O)C(=O)NC5CSSCC(NC(=O)C(Cc6c[nH]c7ccccc67)NC(=O)C(C(C)C)NC(=O)C(CC(C)C)NC(=O)C(CCC(=O)O)NC(=O)CNC(=O)C(CC(C)C)NC(=O)C(Cc6cnc[nH]6)NC(=O)C(Cc6c[nH]c7ccccc67)NC(=O)C(C)NC5=O)C(=O)NC(C(C)O)C(=O)N5CCCC5C(=O)N4C3)nn2)C(O)C(O)C1NC(C)=O` (stereo not drawn) [compound 79], for which the dissociation constant (Kd) is below 100 nM in assay [2] and above 1000 nM in assay [3] (setting [6]).
For `CC(C)CC1NC(=O)C(Cc2cnc[nH]2)NC(=O)C(Cc2c[nH]c3ccccc23)NC(=O)C(C)NC(=O)C2CSSCC(NC(=O)C(Cc3c[nH]c4ccccc34)NC(=O)C(C(C)C)NC(=O)C(CC(C)C)NC(=O)C(CCC(=O)O)NC(=O)CNC1=O)C(=O)NC(C(C)O)C(=O)N1CCCC1C(=O)N1CC(NC(=O)c3ccc(C(=O)NCC4OCC(Nc5cncc(C(F)(F)F)n5)C(O)C4O)cc3)CC1C(=O)NC(CC(=O)O)C(=O)N2` (stereo not drawn) [compound 43], the EC50 in assay [1] (setting [4]) is above 1000 nM. Also, the dissociation constant Kd in assay [2] and in assay [3] (setting [6]) was below 100 nM in each case.
On to `CNC(=O)CCC1NC(=O)CNC(=O)C(CC(C)C)NC(=O)C(Cc2cnc[nH]2)NC(=O)C(Cc2c[nH]c3ccccc23)NC(=O)C(C)NC(=O)C2CSSCC(NC(=O)C(Cc3c[nH]c4ccccc34)NC(=O)C(C(C)C)NC(=O)C(CC(C)C)NC1=O)C(=O)NC(C(C)O)C(=O)N1CCCC1C(=O)N1CC(N)CC1C(=O)NC(CC(=O)O)C(=O)N2` (stereo not drawn) [compound 64], for which the Kd in assay [3] (setting [6]) was below 100 nM.
With `CC(C)CC1NC(=O)C(Cc2cnc[nH]2)NC(=O)C(Cc2c[nH]c3ccccc23)NC(=O)C(C)NC(=O)C2CSSCC(NC(=O)C(Cc3c[nH]c4ccccc34)NC(=O)C(C(C)C)NC(=O)C(CC(C)C)NC(=O)C(CCC(=O)O)NC(=O)CNC1=O)C(=O)NC(C(C)O)C(=O)N1CCCC1C(=O)N1CC(NC(=O)CCCc3cn(CC(=O)NC(COCCC(=O)NCCOCCOCCOCCOCC4OCC(Nc5cncc(C(F)(F)F)n5)C(O)C4O)COCCC(=O)NCCOCCOCCOCCOCC4OCC(Nc5cncc(C(F)(F)F)n5)C(O)C4O)nn3)CC1C(=O)NC(CC(=O)O)C(=O)N2` (stereo not drawn) [compound 77], the 50% effective concentration (EC50) in assay [1] (setting [7]) is below 100 nM. For the same molecule, the Kd in assay [2] was below 100 nM.
In the case of `CC(C)C[C@@H]1NC(=O)[C@H](Cc2cnc[nH]2)NC(=O)[C@H](Cc2c[nH]c3ccccc23)NC(=O)[C@H](C)NC(=O)[C@@H]2CSSC[C@H](NC(=O)[C@H](Cc3c[nH]c4ccccc34)NC(=O)[C@H](C(C)C)NC(=O)[C@H](CC(C)C)NC(=O)[C@H](CCC(=O)N(C)C)NC(=O)CNC1=O)C(=O)N[C@@H]([C@@H](C)O)C(=O)N1CCC[C@@H]1C(=O)N1C[C@@H](N)C[C@H]1C(=O)N[C@@H](C)C(=O)N2` [compound 68], the Kd in assay [2] is below 100 nM.
Still for that read-out and setting: for `CC(C)CC1NC(=O)C(Cc2cnc[nH]2)NC(=O)C(Cc2c[nH]c3ccccc23)NC(=O)C(C)NC(=O)C2CSSCC(NC(=O)C(Cc3c[nH]c4ccccc34)NC(=O)C(C(C)C)NC(=O)C(CC(C)C)NC(=O)C(CCC(=O)N(C)C)NC(=O)CNC1=O)C(=O)NC(C(C)O)C(=O)N1CCCC1C(=O)N1CC(N)CC1C(=O)NC(CC(N)=O)C(=O)N2` (stereo not drawn) [compound 69] (cyclo(GE(NMe2)LVWCTP[ξPro(4-NH2)]NCAWHL); disulfide 6-11; configuration not given here) the value was below 100 nM.
On the same count and under the same terms, for `CC(C)CC1NC(=O)C(Cc2cnc[nH]2)NC(=O)C(Cc2c[nH]c3ccccc23)NC(=O)C(C)NC(=O)C2CSSCC(NC(=O)C(Cc3c[nH]c4ccccc34)NC(=O)C(C(C)C)NC(=O)C(CC(C)C)NC(=O)C(CCC(=O)O)NC(=O)CNC1=O)C(=O)NC(C(C)O)C(=O)N1CCCC1C(=O)N1CC(N)CC1C(=O)NC(CC(=O)O)C(=O)N2` (stereo not drawn) [compound 56] the value was below 100 nM.
